Data from patent US20230295285A1, “METHODS OF REVERSING CACHEXIA AND PROLONGING SURVIVAL COMPRISING ADMINISTERING A GDF15 MODULATOR AND AN ANTI-CANCER AGENT” (AVEO Pharmaceuticals, Inc., priority 2014, published 2023).
Where two headings read alike, the source gives them in different places.

How the values were obtained:
Assay type in all cases: in vivo
GDF15 [1] = target: T1, GDF15 (Mus musculus, UniProt Q9Z0J7); conditions: ICR-Scid mice
T1 construct: Naive non-tumor-bearing, 8-week old, female, ICR-Scid mice; from tissue; host or cells: whole animal: ICR-Scid mice (endogenous circulating GDF15)
T1 sequence (Q9Z0J7 189-303): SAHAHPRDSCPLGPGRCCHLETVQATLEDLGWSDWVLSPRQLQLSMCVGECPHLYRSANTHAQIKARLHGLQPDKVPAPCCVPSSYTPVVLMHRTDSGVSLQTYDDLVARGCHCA
Experimental: Naive non-tumor-bearing, 8-week old, female, ICR-Scid mice were treated with carboplatin (60 mpk) by intra-peritoneal injection on Day 0 and Day 3 of this experiment. On Day 2, after mice experience 8% body weight loss, mice were randomized into two groups of ten mice each. One group received carboplatin (60 mpk) plus (1) vehicle or carboplatin (60 mpk) plus (2) rabbit monoclonal antibody raised against murine anti-GDF15 antibody, R-23 (20 mpk) by intra-peritoneal injection on Day 2 and Day 4. In the absence of GDF15 inhibition, 80% of the mice died due to cachexia caused by the carboplatin agent over a period of 8 days.

GDF15 [2] = target: T1, GDF15; conditions: non-tumor-bearing ICR-Scid mice; cisplatin 3 mpk i.p. twice a week + vehicle; over 9 days
Experimental: Naive non-tumor-bearing, 8-week old, female, ICR-Scid mice were treated with cisplatin (3 mpk) twice a week by intra-peritoneal injection. Body weight was measured daily. After 2 doses of cisplatin (day 0 of the experiment) mice were randomized into two groups of ten mice each. One group received cisplatin 3 mpk plus (1) vehicle; or cisplatin 3 mpk with (2) rabbit monoclonal antibody raised against murine anti-GDF15 antibody, R-23 twice a week (20 mpk) by intra-peritoneal injection. In the absence of GDF15 inhibition, 80% of the mice die due to cachexia caused by the cisplatin agent over a period of 9 days.

GDF15 [3] = target: T1, GDF15; conditions: ICR-Scid mice; remark: listed apart in the source
Experimental: Naive non-tumor-bearing, 8-week old, female, ICR-Scid mice were treated daily with oxaliplatin (3 mpk) by intra-peritoneal injection. On Day 3, after mice experience 8% body weight loss, mice were randomized into two groups of ten mice each. One group received oxaliplatin (3 mpk) plus (1) vehicle; or oxaliplatin (3 mpk) plus (2) rabbit monoclonal antibody raised against murine anti-GDF15 antibody, R-23 (20 mpk). Antibody or vehicle was dosed on Day 3, 5, 7, 9 by intra-peritoneal injection. In the absence of GDF15 inhibition, 45% of the mice die due to cachexia caused by the oxaliplatin agent over a period of 10 days.

GDF15 [4] = test: Survival and cachexia in mice bearing LNCaP prostate xenograft, anti-GDF15 antibody plus tivozanib; conditions: LNCaP xenograft NCR Nude mice
Experimental: LNCaP cells were grown in culture at 37° C. in an atmosphere containing 5% CO2, using RPMI-1640 Medium (ATCC® 30-2001™) containing 10% FBS. Cells were inoculated subcutaneously into the flank of 8-week old female NCR Nude mice with 5×10^6 cells per mouse in 50% matrigel. When tumor size reached 500 mm^3, the mice were randomized into three groups of ten mice each. Each group received one of the following treatments: (1) murine immunoglobulin G (20 mpk) and vehicle (Control); (2) murine anti-GDF15 antibody 14F11 (20 mpk) and tivozanib (5 mpk); or (3) murine immunoglobulin G (20 mpk) and tivozanib (5 mpk). Antibodies were administered every 3 days by intra-peritoneal injection, tivozanib and vehicle control was administered daily by oral gavage. Body weight and tumor size were measured daily. Mice were evaluated daily and if any of the following criteria were achieved, animals were sacrificed: a) tumor size larger than 2,000 mm^3; b) body weight loss greater than 20%; c) moribund.
In the absence of GDF15 inhibition, 70% of the mice die due to cachexia over a period of 30 days, even in the presence of anti-cancer treatment.

For `N.N.O=C([O-])C1(C(=O)[O-])CCC1.[Pt+2]` [carboplatin], the “mice died due to cachexia caused by carboplatin” value (GDF15 [1]; carboplatin 60 mpk i.p. Day 0 and Day 3 + vehicle, over 8 days) was 80% and the body weight loss (GDF15 [1]; carboplatin 60 mpk i.p., on Day 2, before randomization) was 8%.

In the case of `N.N.[Cl][Pt][Cl]` [cisplatin], the “mice die due to cachexia caused by cisplatin” value (GDF15 [2]) is reported as 80%.

`O=C1[O][Pt]2([NH][C@@H]3CCCC[C@H]3[NH]2)[O]C1=O` [oxaliplatin] was tested, and the “mice die due to cachexia caused by oxaliplatin” value (GDF15 [3]; oxaliplatin 3 mpk i.p. daily + vehicle, over 10 days) was 45% and the body weight loss (GDF15 [3]; oxaliplatin 3 mpk i.p. daily, on Day 3, before randomization) was 8%.

`COc1cc2nccc(Oc3ccc(NC(=O)Nc4cc(C)on4)c(Cl)c3)c2cc1OC` [tivozanib] was tested, and the “effect on tumor growth” value (GDF15 [4]; tivozanib 5 mpk daily oral) was “slows down tumor growth” and the “mice die due to cachexia” value (GDF15 [4]; tivozanib 5 mpk daily oral gavage + murine IgG 20 mpk, absence of GDF15 inhibition, over 30 days) was 70%.

B1: 14F11: murine anti-GDF15 antibody; light chain SEQ ID NO: 34, heavy chain SEQ ID NO: 53 (antibody)
heavy: QVTLKESGPGILQPSQTLSLTCSFSGFSLSTYGMGVGWIRQPSGKGLEWLADIWWDDDKYYNPSLKSRLTISKDTSSNEVFLKIAIVDTADTATYYCARRGHYSAMDYWGQGTSVTVSSAKTTPPSVYPLAPGSAAQTNSMVTLGCLVKGYFPEPVTVTWNSGSLSSGVHTFPAVLQSDLYTLSSSVTVPSSTWPSETVTCNVAHPASSTKVDKKIVPRDCGCKPCICTVPEVSSVFIFPPKPKDVLTITLTPKVTCVVVDISKDDPEVQFSWFVDDVEVHTAQTQPREEQFNSTFRSVSELPIMHQDWLNGKEFKCRVNSAAFPAPIEKTISKTKGRPKAPQVYTIPPPKEQMAKDKVSLTCMITDFFPEDITVEWQWNGQPAENYKNTQPIMDTDGSYFVYSKLNVQKSNWEAGNTFTCSVLHEGLHNHHTEKSLSHSPGK
light: DIVMTQSQKFMSTSVGDRVSVTCKASQNVGTNVAWYQQKPGQSPKALIYSPSYRYSGVPDRFTGSGSGTDFTLTISNVQSEDLAEYFCQQYNSYPHTFGGGTKLEMKRADAAPTVSIFPPSSEQLTSGGASVVCFLNNFYPKDINVKWKIDGSERQNGVLNSWTDQDSKDSTYSMSSTLTLTKDEYERHNSYTCEATHKTSTSPIVKSFNRNEC
For B1, the anti-tumor effect (GDF15 [4]; 14F11 20 mpk + tivozanib 5 mpk, 30 day period) was “effective anti-tumor treatment”, the effect on cachexia (GDF15 [4]; 14F11 20 mpk + tivozanib 5 mpk, 30 days) was “reverses cachexia” and the sustained survival (GDF15 [4]; 14F11 20 mpk i.p. every 3 days + tivozanib 5 mpk daily oral, over 30 day period, FIG. 1) was 100%.
